In PubChem BioAssay (NCI):
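Five compound concentrations were applied to cells in 96-well plates for 48 hours; endpoints were derived by simple linear interpolation of the resulting dose-response curve. The concentration for 50% growth inhibition is given as GI50. At the TGI there is no net growth.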

Assays:
Assay in all cases: NCI-60 cell line screen, 48 h
NCI-H460 lung = tested on: NCI-H460 lung
IGROV1 ovarian = tested on: IGROV1 ovarian
MDA-MB-231 breast = tested on: MDA-MB-231 breast
MDA-MB-435 = tested on: MDA-MB-435
PC-3 prostate = tested on: PC-3 prostate
OVCAR-5 ovarian = tested on: OVCAR-5 ovarian
HOP-62 NSCLC = tested on: HOP-62 NSCLC
SK-MEL-2 melanoma = tested on: SK-MEL-2 melanoma
EKVX NSCLC = tested on: EKVX NSCLC
TK-10 renal = tested on: TK-10 renal

C/C=C(\C)C(=O)N[C@H]1C(O)C[C@]2(C)C3CC[C@@]4(C)C(CC[C@@H]4C(C)N(C)C)C3CCC2C1O (stereo not given in full)
GI50 (NCI-H460 lung): 2070 nM
TGI (NCI-H460 lung): 4.59 µM
GI50 (IGROV1 ovarian): 13.3 µM
TGI (IGROV1 ovarian): > 43.7 µM
GI50 (MDA-MB-231 breast): 6.06 µM
TGI (MDA-MB-231 breast): 18 µM
GI50 (MDA-MB-435): 2540 nM
TGI (MDA-MB-435): 5.85 µM
GI50 (PC-3 prostate): 8.72 µM
TGI (PC-3 prostate): > 52.6 µM
GI50 (OVCAR-5 ovarian): 16.7 µM
TGI (OVCAR-5 ovarian): > 47.9 µM
GI50 (HOP-62 NSCLC): 5.97 µM
TGI (HOP-62 NSCLC): 11.8 µM
GI50 (SK-MEL-2 melanoma): 24.1 µM
TGI (SK-MEL-2 melanoma): 49.1 µM
GI50 (EKVX NSCLC): 9.38 µM
TGI (EKVX NSCLC): > 50.9 µM
GI50 (TK-10 renal): 18.1 µM
TGI (TK-10 renal): 41.5 µM

CC(Br)C(=O)Nc1ccc(C(=O)O)c(O)c1 (stereo not given)
TGI (NCI-H460 lung): > 100 µM
TGI (IGROV1 ovarian): > 100 µM
TGI (MDA-MB-231 breast): > 100 µM
TGI (MDA-MB-435): > 100 µM
TGI (PC-3 prostate): > 100 µM
TGI (OVCAR-5 ovarian): > 100 µM
TGI (HOP-62 NSCLC): > 100 µM
TGI (SK-MEL-2 melanoma): > 100 µM
TGI (EKVX NSCLC): > 100 µM
TGI (TK-10 renal): > 100 µM

CCN(CC)CCOc1ccc(C(=O)/C=C\c2ccc(Cl)cc2Cl)cc1
GI50 (NCI-H460 lung): 11100 nM
TGI (NCI-H460 lung): 26.1 µM
GI50 (IGROV1 ovarian): 4.63 µM
TGI (IGROV1 ovarian): 22.4 µM
GI50 (MDA-MB-231 breast): 4.92 µM
TGI (MDA-MB-231 breast): 20.1 µM
GI50 (MDA-MB-435): 2560 nM
TGI (MDA-MB-435): 7.36 µM
GI50 (PC-3 prostate): 4.1 µM
TGI (PC-3 prostate): 14.5 µM
GI50 (OVCAR-5 ovarian): 10.3 µM
TGI (OVCAR-5 ovarian): 27.2 µM
GI50 (HOP-62 NSCLC): 11 µM
TGI (HOP-62 NSCLC): 24.9 µM
GI50 (SK-MEL-2 melanoma): 15 µM
TGI (SK-MEL-2 melanoma): 28.5 µM
GI50 (EKVX NSCLC): 12.6 µM
TGI (EKVX NSCLC): 25.1 µM
GI50 (TK-10 renal): 15.6 µM
TGI (TK-10 renal): 29.2 µM

Cc1ccc(-c2nc(N3CCCNCC3)c3oc(-c4ccc(C)cc4)nc3n2)cc1
GI50 (NCI-H460 lung): 1890 nM
TGI (NCI-H460 lung): 3.43 µM
GI50 (IGROV1 ovarian): 1.62 µM
TGI (IGROV1 ovarian): 3.19 µM
GI50 (MDA-MB-231 breast): 1.69 µM
TGI (MDA-MB-231 breast): 3.11 µM
GI50 (MDA-MB-435): 1780 nM
TGI (MDA-MB-435): 3.17 µM
GI50 (PC-3 prostate): 1.51 µM
TGI (PC-3 prostate): 2.91 µM
GI50 (OVCAR-5 ovarian): 1.75 µM
TGI (OVCAR-5 ovarian): 3.17 µM
GI50 (HOP-62 NSCLC): 8.78 µM
TGI (HOP-62 NSCLC): 24.3 µM
GI50 (SK-MEL-2 melanoma): 21.3 µM
TGI (SK-MEL-2 melanoma): 45.4 µM
GI50 (EKVX NSCLC): 4.09 µM
TGI (EKVX NSCLC): > 100 µM
GI50 (TK-10 renal): 2.08 µM
TGI (TK-10 renal): 3.96 µM

CN(/N=N/c1nc(OCc2ccccc2)c2[nH]cnc2n1)C(=O)Oc1ccc([N+](=O)[O-])cc1
GI50 (NCI-H460 lung): 6710 nM
TGI (NCI-H460 lung): 31.3 µM
GI50 (IGROV1 ovarian): 12.2 µM
TGI (IGROV1 ovarian): 31.2 µM
GI50 (MDA-MB-231 breast): 5.78 µM
TGI (MDA-MB-231 breast): 18.6 µM
GI50 (MDA-MB-435): 12400 nM
TGI (MDA-MB-435): 39.8 µM
GI50 (PC-3 prostate): 10.8 µM
TGI (PC-3 prostate): 27.1 µM
GI50 (OVCAR-5 ovarian): 11.5 µM
TGI (OVCAR-5 ovarian): > 50 µM
GI50 (HOP-62 NSCLC): 28.8 µM
TGI (HOP-62 NSCLC): > 50 µM
GI50 (SK-MEL-2 melanoma): 11.9 µM
TGI (SK-MEL-2 melanoma): 28.5 µM
GI50 (EKVX NSCLC): 11.5 µM
TGI (EKVX NSCLC): 35.9 µM
GI50 (TK-10 renal): 12 µM
TGI (TK-10 renal): 34 µM

COc1ccc(C2=CC(c3ccc(OC)c(OC)c3)c3c(c4ccccc4oc3=O)O2)cc1OC (stereo not given)
GI50 (NCI-H460 lung): 1900 nM
TGI (NCI-H460 lung): > 100 µM
GI50 (IGROV1 ovarian): 2.47 µM
TGI (IGROV1 ovarian): > 31.2 µM
GI50 (MDA-MB-231 breast): 3.46 µM
TGI (MDA-MB-231 breast): > 51.4 µM
GI50 (MDA-MB-435): 244 nM
TGI (MDA-MB-435): 0.831 µM
GI50 (PC-3 prostate): 0.745 µM
TGI (PC-3 prostate): > 100 µM
GI50 (OVCAR-5 ovarian): 6.33 µM
TGI (OVCAR-5 ovarian): > 100 µM
GI50 (HOP-62 NSCLC): 2.2 µM
TGI (HOP-62 NSCLC): > 100 µM
GI50 (SK-MEL-2 melanoma): 12.2 µM
TGI (SK-MEL-2 melanoma): > 100 µM
GI50 (EKVX NSCLC): 1.52 µM
TGI (EKVX NSCLC): > 100 µM
GI50 (TK-10 renal): > 24.9 µM
TGI (TK-10 renal): > 100 µM
